Patent US7169890B2, “Process for the production of ramoplanin-like amide derivatives” (Vicuron Pharmaceuticals Inc., priority 2002, dated 2007)

Tests used:
[1] = tested on: methicillin-resistant Staphylococcus aureus SA 613; experiment: Murine infection, methicillin-resistant Staphylococcus aureus SA 613; type: in vivo; conditions: mice, i.p. infection, s.c. treatment, survival to day 7
Description: Mice were infected intraperitoneally with ca 10^7 CFU/mouse of Staphylococcus aureus SA 613. Untreated animals died within 24 hours after infection. Groups of eight mice each were treated iv or s.c. with different dose levels of ramoplanin or each test compound, starting 10–20 minutes after challenge. Ramoplanin and vancomycin were used as reference drugs.

[2] = tested on: Staphylococcus aureus Smith SA 819; experiment: Murine septicaemia, Staphylococcus aureus Smith SA 819 systemic infection; type: in vivo; conditions: mice, i.p. infection, s.c. treatment, survival to day 7
Description: As an example, therapeutical effectiveness of some representative compounds of formula (Ia) in murine septicaemia caused by intraperitoneally administered Staphylococcus aureus Smith SA 819 was evaluated in comparison with ramoplanin. Vancomycin was chosen as reference drug for the evaluation of in vivo antiinfective activity.
Mice were infected intraperitoneally with Staphylococcus aureus Smith SA 819. Untreated animals died within 24 hours after infection. Groups of eight mice each were treated s.c. with different dose levels of ramoplanin or of each test compound, starting 10–20 min after challenge. Reference drugs was s.c. injected vancomycin.

[3] = tested on: 49 Strep. pyogenes C203; experiment: MIC, broth microdilution NCCLS (isolated compounds or reaction solutions); type: cell-based, Streptococcus pyogenes; conditions: for MIC: 49 Strep. pyogenes C203, isolated compounds
Description: (§1) The antimicrobial activity in vitro of the compounds obtained according to the process of this invention was evaluated against a panel of clinical isolates of methicillin-sensitive, methicillin-resistant and vancomycin-intermedie Staphylococcus aureus, Van-S and Van-A Enterococcus faecium and faecalis, Streptococcus pyogenes, Escherichiae coli and Candida albicans.
(§2) MICs were performed using the broth microdilution methodology following the NCCLS procedure (NCCLS Document M7-A4 Vol.17 No.2 January 1997) in presence of 0.02% albumine bovine serum with inocula of approximately 5×10^5 cfu/mL. The media employed included cation-adjusted Mueller-Hinton (MH) broth (Difco Laboratories, Detroit, Mich., USA) supplemented or not with 30% (v/v) bovine serum. Tests were read after 24 h incubation at 37° C.
(§3) A further set of experiments for measuring the antimicrobial activity in vitro of a series of compounds of formula (Ia) in comparison with the known compound 1 was carried out directly on the solutions deriving from the reaction of the starting acid of formula (IV) with the deacyl ramoplanin of formula (III) according to the method A described in the Examples.
(§4) The reaction solutions (resulting from the addition of 1M hydrochloric acid as described in Method A) were diluted at 6000 mcg/ml by adding 0.1% peptone Difco Laboratories, (Detroit, Mich., USA) plus 0.9% NaCl (PBS). The resulting solutions were diluted with water at the desired concentration to perform the test that was then carried out in the same way described for the isolated compounds reported in Table 2.

[4] = tested on: 569 Entero. faecium clin. isolate Van-A; experiment: as above; type: cell-based, Enterococcus faecium; conditions: for MIC: 569 Entero. faecium clin. isolate Van-A, isolated compounds
Description: as §1, §2, §3, §4

[5] = tested on: 560 Entero. faecalis VanA; experiment: as above; type: cell-based, Enterococcus faecalis; conditions: for MIC: 560 Entero. faecalis VanA, isolated compounds
Description: as §1, §2, §3, §4

[6] = tested on: blood cells; experiment: Haemolytic potential on blood cells (isolated compounds); type: cell-based, rats
Description: The ramoplanin-like amide derivatives were dissolved at 40.000 mcg/ml in dimethyl sulfoxide (DMSO) and then diluted 1:5 in 0.1% peptone Difco Laboratories, (Detroit, Mich., USA) plus 0.9% NaCl (PBS).
(§5) Whole blood sample was obtained from the dorsal aorta of rats and diluted 1:100 in PBS before the test.
Group 2—PBS as physiologic haemolysis control
Group 3—saponin (Sigma), solution at 3% in distilled water, as 100% haemolysis control.
(§6) The test groups were diluted 1:5 in blood cells and incubated in water bath at 37° C. for 45 minutes.
(§7) After the incubation time the samples were centrifuged at 2500–3000 g for 10 minutes, and 0.1 ml of each supernatant was diluted in 900 mcl of Drabkin's reagent (Sigma).
(§8) The optical density (OD) of the samples was measured at 540 nm versus a blank preparation of Drabkin's reagent plus 0.1 ml of PBS.
The test was performed in triplicate.
(§9) The percentage of haemolysis was calculate using the formula Δx/Δt×100=% of haemolysis
Δx=mean value of OD540 for each concentration tested (GROUP 1–2)
Δt=mean value of OD540 for 100% haemolysis control (GROUP 3).
(§10) The haemolysis was considered significant when exceeding at least 3 times the haemolytic value of blank control (GROUP 2).

[7] = tested on: 3797 Staph. aureus clin. isolate VISA Met-R; experiment: MIC, broth microdilution NCCLS (isolated compounds or reaction solutions); type: cell-based, Staphylococcus aureus; conditions: for MIC: 3797 Staph. aureus clin. isolate VISA Met-R, isolated compounds
Description: as §1, §2, §3, §4

[8] = tested on: 613 Staph. aureus clin. isolate Met-R; experiment: as above; type: cell-based, Staphylococcus aureus; conditions: for MIC: 613 Staph. aureus clin. isolate Met-R, isolated compounds
Description: as §1, §2, §3, §4

[9] = tested on: 3798 Staph. aureus clin. isolate VISA; experiment: as above; type: cell-based, Staphylococcus aureus; conditions: for MIC: 3798 Staph. aureus clin. isolate VISA, isolated compounds
Description: as §1, §2, §3, §4

[10] = tested on: 819 Staph. aureus Smith; experiment: as above; type: cell-based, Staphylococcus aureus; conditions: for MIC: 819 Staph. aureus Smith, isolated compounds
Description: as §1, §2, §3, §4

[11] = tested on: 47 E coli SKF12140; experiment: as above; type: cell-based, Escherichiae coli; conditions: for MIC: 47 E coli SKF12140, isolated compounds
Description: as §1, §2, §3, §4

[12] = tested on: 145 Candida albicans SKF2270; experiment: as above; type: cell-based; conditions: for MIC: 145 Candida albicans SKF2270, isolated compounds
Description: as §1, §2, §3, §4

[13] = tested on: 568 Entero. faecium (isogenic of L569); experiment: as above; type: cell-based, Enterococcus faecium
Description: as §1, §2, §3, §4

[14] = tested on: 559 Entero. faecalis (isogenic of L 560); experiment: as above; type: cell-based, Enterococcus faecalis
Description: as §1, §2, §3, §4

[15] = tested on: blood cells; experiment: Haemolytic effect (reaction solutions); type: cell-based, rats
Description: as §5, §6, §7, §8, §9, §10
as §3, with “haemolytic effect” for “antimicrobial activity in vitro”
The reaction solutions (resulting from the addition of 1M hydrochloric acid as described in Method A) were diluted at 1200 mcg/ml by adding 0.1% peptone Difco Laboratories, (Detroit, Mich., USA) plus 0.9% NaCl (PBS).

[16] = reaction solutions, +30% bovine serum

Compound	MIC [3] [µg/mL]	MIC ([4]; +30% bovine serum) [µg/mL]	MIC [4] [µg/mL]	MIC ([5]; +30% bovine serum) [µg/mL]	MIC [5] [µg/mL]	% lyis at 100 mcg/ml [6] [%]	% lysis at 200 mcg/ml [6] [%]	% lysis at 400 mcg/ml [6] [%]	MIC [7] [µg/mL]	MIC [8] [µg/mL]	MIC ([9]; +30% bovine serum) [µg/mL]	MIC [9] [µg/mL]	MIC ([10]; +30% bovine serum) [µg/mL]	MIC ([10]; MH broth) [µg/mL]	MIC [11] [µg/mL]	MIC [12] [µg/mL]	other results
CN[C@H](CC(C)C)C(=O)N[C@H]1C(=O)N[C@@H](CC(N)=O)C(=O)N[C@H]2C(=O)N[C@H]3C(=O)N[C@H](C(=O)N[C@H](C(=O)O)c4cc(O)cc(O)c4-c4cc3ccc4O)[C@H](O)c3ccc(c(Cl)c3)Oc3cc2cc(c3O[C@@H]2O[C@H](CO)[C@@H](O)[C@H](O)[C@H]2O[C@H]2C[C@](C)(N)[C@H](O)[C@H](C)O2)Oc2ccc(cc2Cl)[C@H]1O [Vancomycin]	–	–	–	–	–	–	–	–	–	–	–	–	–	–	–	–	ED50 [1]: 8 mg/kg/dose; ED50 [2]: 0.64 mg/kg/dose
ramoplanin factor A1 [Compound 35]	<0.125	1	<0.125	0.5	<0.125	58.99	80.44	92.82	1	<0.125	2	0.5	0.5	<0.125	>128	>128	–
ramoplanin factor A2 [Compound 1]	<0.03	2	0.125	2	0.06	86.04	100	100	2	0.25	16	1	4	0.125	>32	>32	MIC 49 Strep. pyogenes C203 ([3]; reaction solutions, no serum): ≦0.125 mcg/ml; MIC 568 Entero. faecium (isogenic of L569) ([13]; reaction solutions, no serum): ≦0.125 mcg/ml; MIC 569 Entero. faecium clin. isolate Van-A +30% bovine serum [4, 16]: 2 µg/mL; MIC 569 Entero. faecium clin. isolate Van-A ([4]; reaction solutions, no serum): ≦0.125 mcg/ml; MIC ([14]; 559 Entero. faecalis (isogenic of L 560), isolated compounds): 0.06 µg/mL; MIC 559 Entero. faecalis (isogenic of L 560) ([14]; reaction solutions, no serum): ≦0.125 mcg/ml; MIC 560 Entero. faecalis VanA +30% bovine serum [5, 16]: 2 µg/mL; MIC 560 Entero. faecalis VanA ([5]; reaction solutions, no serum): ≦0.125 mcg/ml; MIC 3797 Staph. aureus clin. isolate VISA Met-R ([7]; reaction solutions, no serum): 2 µg/mL; MIC 613 Staph. aureus clin. isolate Met-R ([8]; reaction solutions, no serum): 0.25 µg/mL; MIC 3798 Staph. aureus clin. isolate VISA +30% bovine serum [9, 16]: 8 µg/mL; MIC 3798 Staph. aureus clin. isolate VISA ([9]; reaction solutions, no serum): 1 µg/mL; MIC 819 Staph. aureus Smith +30% bovine serum [10, 16]: 2 µg/mL; MIC 819 Staph. aureus Smith ([10]; reaction solutions, no serum): ≦0.125 mcg/ml; % lysis at 300 mcg/ml ([15]; 300 mcg/ml): 74.39%; % lysis at 600 mcg/m ([15]; 600 mcg/m): 88.87%; MIC 47 E coli SKF12140 ([11]; reaction solutions): >128 µg/mL; MIC 145 Candida albicans SKF2270 ([12]; reaction solutions): >128 µg/mL
tetrahydroderivative of ramoplanin factor A1 [Compound 5]	<0.03	4	0.125	2	0.06	–	–	–	4	0.5	–	2	4	0.25	>32	>32	MIC ([13]; 568 Entero. faecium (isogenic of L569), isolated compounds): 0.25 µg/mL
